Assay results published in patent publication US10550084B2, “Substituted 1-hydroxy-pyridin-2(1H)-ones, and methods of making and using same” (ARBUTUS BIOPHARMA CORPORATION, priority 2017, dated 2020).

How the values were obtained:
Assay type in all cases: cell-based
[1] = test system: HBV rcDNA in HepDE19 cells; test: HepDE19 assay with bDNA quantitation of HBV rcDNA; conditions: Hepatitis B virus, 168 h, 7 days, top concentration 25 μM, Quantigene 2.0 bDNA, read-out: bDNA_RCDNA EC50
Description: (§1) (b) HepDE19 Assay with bDNA Quantitation of HBV rcDNA
(§2) HepDE19 cell culture system is a HepG2 (human hepatocarcinoma) derived cell line that supports HBV DNA replication and cccDNA formation in a tetracycline (Tet)-regulated manner and produces HBV rcDNA and a detectable reporter molecule dependent on the production and maintenance of cccDNA (Guo, et al., 2007, J. Virol. 81:12472-12484). HepDE19 (50,000 cells/well) were plated in 96 well collagen-coated tissue-culture treated microtiter plates in DMEM/F12 medium supplemented with 10% fetal bovine serum, 1% penicillin-streptomycin and 1 μg/mL tetracycline and incubated in a humidified incubator at 37° C. and 5% CO2 overnight. Next day, the cells were switched to fresh medium without tetracycline and incubated for 4 hrs at 37° C. and 5% CO2. The cells were treated with fresh Tet-free medium with compounds at concentrations starting at 25 μM and a serial, ½ log, 8-point, titration series in duplicate. The final DMSO concentration in the assay was 0.5%. The plates were incubated for 7 days in a humidified incubator at 37° C. and 5% CO2. Following a 7 day-incubation, the level of rcDNA present in the inhibitor-treated wells was measured using a Quantigene 2.0 bDNA assay kit (Affymetrix, Santa Clara, Calif.) with HBV specific custom probe set and manufacturer's instructions. In order to differentiate HBV RNaseH inhibitors from other classes of HBV inhibitors (for example, nucleos(t)ide analogs or capsid inhibitors), the assay method was configured by incorporating the quantitation of both the minus-strand and the plus-strand of HBV rcDNA levels using specifically designed HBV probe sets. This is based on the observation that inhibition of RNaseH enzyme activity results in a block of the synthesis of the plus strand synthesis by the viral polymerase that follows the synthesis of the minus-strand of rcDNA (Tavis & Lomonosova, 2015, Antiviral Res. 118:132-138). […] In contrast, treatment with HBV inhibitors such as a nucleos(t)ide analogs or capsid inhibitors reduces the production of both strands of HBV rcDNA in cells. Concurrently, the effect of compounds on cell viability was assessed using replicate plates, plated at a density of 5,000 cells/well and incubated for 4 days, to determine the ATP content as a measure of cell viability using the cell-titer glo reagent (CTG; Promega Corporation, Madison, Wis.) as per manufacturer's instructions. The plates were read using a Victor luminescence plate reader (PerkinElmer Model 1420 Multilabel counter) and the relative luminescence units (RLU) data generated from each well was calculated as % inhibition of the untreated control wells and analyzed using XL-Fit module in Microsoft Excel to determine EC50 and EC90 (bDNA) and CC50 (CTG) values using a 4-parameter curve fitting algorithm.

[2] = test system: HA-tagged HBeAg (HBV) in DESHAe82 cells; test: AlphaLisa eAg: HA-HBeAg level in DESHAe82 cell culture (anti-HBV / anti-cccDNA activity); conditions: Hepatitis B virus, 216 h, read-out: AlphaLisa_eAg EC50
Description: Evaluation of anti-HBV activity of the compounds in in vitro cell culture studies was conducted using a modification of the assay system described in Cai et al., 2012, Antimicrobial Agents Chemotherapy 56(8):4277-88, and PCT/EP/2015/06838. In the DESHAe82 cell culture system, the HA epitope-tagged secreted HBV “e antigen” (HBeAg) and HBV precore RNA are produced only from the cccDNA circular template that is formed after HBV replication in absence of Tetracycline (Tet). The DESHAe82 cell line produces high levels of cccDNA synthesis and HA-HBeAg, and high specific readout signals with low noise.
Two assay systems, a chemiluminescence ELISA (CLIA) and a proximity […] assay (AlphaLISA) were developed and used for high-sensitivity detection of HA-tagged HBeAg. To test the compound, DESHAe82 were plated in 96 well tissue-culture treated microtiter plates in DMEM/F12 medium supplemented with 10% fetal bovine serum+1% penicillin-streptomycin with Tet, and incubated in a humidified incubator at 37° C. and 5% CO2 overnight. Next day, the cells were switched to fresh medium without Tet and treated with a test compound, over a range of concentrations (compound is solubilized in 100% DMSO before dilution in cell culture media, and the final DMSO concentration in the assay was 0.5%), and incubated for a duration of 9 days in a humidified incubator at 37° C. and 5% CO2. Untreated negative control samples (0.5% DMSO only) were included on each plate in multiple wells. On day 9, media was harvested and removed to a fresh plate, and level of HA-HBeAg was determined by CLIA or AlphaLISA. Anti-cccDNA activity of each test compound concentration was calculated as a percentage of HA-HBeAg signal detected in negative control samples versus compound-treated samples, and EC50 value for each compound was defined as the concentration that reduced the HA-HBeAg signal by 50%.

[3] = test system: plus-strand of HBV rcDNA in HepDE19 cells; test: HepDE19 assay with bDNA quantitation of HBV rcDNA, plus-strand probe set; conditions: Hepatitis B virus, 168 h, 7 days, top concentration 25 μM, Quantigene 2.0 bDNA, plus-strand (PS) rcDNA, read-out: bDNA_RCDNA_PS EC50
Description: as §1, §2

Structure (SMILES) | EC50 [1] [µM] | EC50 [2] [µM] | EC50 [3] [µM]
CC(=NOc1ccccc1)c1c(C)cc(=O)n(O)c1O (mixture of isomers) [Compound 2, (E/Z)-1,6-Dihydroxy-4-methyl-5-(1-(phenoxyimino)ethyl)pyridin-2(1H)-one] | 17.1 | 1.28 | 4.4
CC(=NOc1ccc(F)cc1)c1c(C)cc(=O)n(O)c1O (mixture of isomers) [Compound 3, (E/Z)-5-(1-((4-fluorophenoxy)imino)ethyl)-1,6-dihydroxy-4-methylpyridin-2(1H)-one] | 22.2 | 1.18 | 7.41
CC(=NOCc1ccccc1)c1c(C)cc(=O)n(O)c1O (mixture of isomers) [Compound 4, (E/Z)-5-(1-((Benzyloxy)imino)ethyl)-1,6-dihydroxy-4-methylpyridin-2(1H)-one] | > 25 | 2.24 | 13.3
CC(=NOCc1ccc(C)cc1)c1c(C)cc(=O)n(O)c1O (mixture of isomers) [Compound 5, (E/Z)-1,6-Dihydroxy-4-methyl-5-(1-(((4-methylbenzyl)oxy)imino)ethyl)pyridin-2(1H)-one] | > 25 | 1.57 | 3.01
CC(=NOCc1ccc(F)cc1)c1c(C)cc(=O)n(O)c1O (mixture of isomers) [Compound 6, (E/Z)-5-(1-(((4-fluorobenzyl)oxy)imino)ethyl)-1,6-dihydroxy-4-methylpyridin-2(1H)-one] | > 25 | 0.64 | 5.97
COc1ccc(CON=C(C)c2c(C)cc(=O)n(O)c2O)cc1 (mixture of isomers) [Compound 7, (E/Z)-1,6-Dihydroxy-5-(1-(((4-methoxybenzyl)oxy)imino)ethyl)-4-methylpyridin-2(1H)-one] | > 25 | 0.35 | 7.11
CC(=NOCc1ccccc1N)c1c(C)cc(=O)n(O)c1O (mixture of isomers) [Compound 8, (E/Z)-5-(1-(((2-Aminobenzyl)oxy)imino)ethyl)-1,6-dihydroxy-4-methylpyridin-2(1H)-one] | > 25 | 2.25 | 11.1
CC(=NOCc1ccccc1F)c1c(C)cc(=O)n(O)c1O (mixture of isomers) [Compound 9, (E/Z)-5-(1-(((2-Fluorobenzyl)oxy)imino)ethyl)-1,6-dihydroxy-4-methylpyridin-2(1H)-one] | > 25 |  | > 25
COc1ccccc1CON=C(C)c1c(C)cc(=O)n(O)c1O (mixture of isomers) [Compound 10, (E/Z)-1,6-Dihydroxy-5-(1-(((2-methoxybenzyl)oxy)imino)ethyl)-4-methylpyridin-2(1H)-one] | > 25 | 0.98 | 6.53
